Test [1] deals with T1, CETP (Homo sapiens, UniProt P11597).
T1 construct: from tissue; host or cells: plasma of Caucasian male subjects dosed with Compound A or placebo
T1 sequence (P11597 18-493): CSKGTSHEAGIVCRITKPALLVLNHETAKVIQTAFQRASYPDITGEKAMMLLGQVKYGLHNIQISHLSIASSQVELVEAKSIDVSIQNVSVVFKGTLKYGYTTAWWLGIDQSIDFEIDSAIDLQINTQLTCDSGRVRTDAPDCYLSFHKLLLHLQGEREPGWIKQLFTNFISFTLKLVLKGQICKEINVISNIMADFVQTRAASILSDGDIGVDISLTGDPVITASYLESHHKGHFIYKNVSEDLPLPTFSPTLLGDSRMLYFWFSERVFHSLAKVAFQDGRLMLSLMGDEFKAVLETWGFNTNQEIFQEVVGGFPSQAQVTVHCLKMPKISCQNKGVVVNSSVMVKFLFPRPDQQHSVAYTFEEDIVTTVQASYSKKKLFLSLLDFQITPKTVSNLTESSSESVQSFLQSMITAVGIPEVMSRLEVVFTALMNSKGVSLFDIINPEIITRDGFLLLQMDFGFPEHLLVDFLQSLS
Briefly: In vitro CETP assay: 3H-labeled CE transfer from HDL to VLDL/LDL in human plasma. Conditions: 24 h pre-incubation at 37° C. The format is biochemical. Here is the method: Human blood was obtained from healthy male volunteers using 0.1% EDTA as an anticoagulant, and centrifuged at 3,000 rpm for 15 minutes at 4° C. Human plasma was pooled, and then used for the preparation of ^3H-labeled HDL or stored at −80° C. for CETP assay until use. The ^3H-labeled HDL was prepared with human plasma as described by Glenn and Melton (Methods in enzymology. 263; 339-351, 1996). The specific gravity of plasma was measured by a hydrometer, and the density was adjusted to 1.125 g/mL by adding solid KBr. After centrifugation at 100,000 rpm for 4 hours at 12° C. (rotor: 100.4, Optima TLX, Beckman), d>1.125 g/mL fraction was dialyzed against 4 L of Tris-saline-EDTA buffer (TSE; 50 mmol/L Tris, 150 mmol/L NaCl, 2 mmol/L EDTA, pH7.4) for 18 hours at 4° C. [1,2-^3H(N)]-Cholesterol (37 MBq/mL) was added to the dialyzed plasma fraction at the amount of 2 μCi/mL. The tube was tightly sealed under N2 gas stream and incubated at 37° C. for 18 hours with gently stirring to allow esterification of radio-labeled cholesterol by endogenous LCAT. The incubated plasma fraction was adjusted to d=1.21 g/mL with solid KBr, and centrifuged at 100,000 rpm, 12° C. for 5 hours. ^3H-labeled HDL fraction was dialyzed against 2 L of TSE at 4° C. for 18 hours. The radioactivity of ^3H-labeled HDL was counted in a liquid scintillation counter. ^3H-labeled HDL was stored at 4° C. until use.
CETP activity was determined as the rate of ^3H-labeled CE transfer from donor HDL to acceptor VLDL/LDL. Human plasma (94 μL) was pre-incubated with compounds dissolved in DMSO (1 μL) 24 hours at 37° C., and then incubated for 4 hours at 4° C. or 37° C. with 5 μL of ^3H-labeled HDL. One hundred μL of phosphotungstate/MgCl2 reagent (Wako pure chemical) were added to precipitate apoB-containing lipoproteins. After centrifugation at 3,000 rpm for 10 minutes at room temperature, the radioactivity of the supernatant was counted in a liquid scintillation counter. […] The concentration achieving 50% inhibition of CETP activity (IC50) was estimated.

Test [2] has as its system CETP. Briefly: Ex vivo serum CETP activity after oral administration to hamsters. On the set-up: species or system Syrian Golden hamsters. Conditions: 3 mg/kg oral, suspension in 0.5% CMC, serum 3 hours after administration. Here is the method:
Syrian Golden hamsters were used for the experiment after 1-week acclimatization. After an overnight fast, animals were orally given the compound suspension in 0.5% sodium carboxymethylcellulose in a volume of 10 mL/kg. Under deep anesthesia with ether, blood was collected from the abdominal aorta 3 hours after the administration. For preparation of serum, the collected blood was transferred to a plastic tube containing a clot activator, left still for 15 minutes at room temperature and centrifuged. Serum CETP activities were determined immediately.
Ninety-five μL serum were added to 5 μL of […] sodium phosphate buffered saline (pH 7.0) containing 1.5 mM 5,5′-dithio-bis(2-nitrobenzoic acid) in two 96-well V-bottom plates. One plate was incubated at 4° C. and the other was incubated at 37° C. After 18 hours of incubation, each sample was mixed with 100 μL of reagent for precipitation of apolipoprotein B-containing lipoproteins (phosphotungstate/MgCl2 reagent, Wako pure chemical), left still for 10 minutes at room temperature and centrifuged. Total cholesterol (TC) and free cholesterol (FC) in supernatant were measured using commercial kits (Cholesterol E-test wako, and Free Cholesterol E-test wako; Wako pure chemical). Cholesteryl ester (CE) was calculated by subtracting FC from TC. CETP activity was determined by the following formula: CETP activity=[CETP transfer]*/[CE value in 4° C. incubation sample] *CETP transfer=[CE value in 4° C. incubation sample]−[CE value in 37° C. incubation sample] (c) Results

Here are results for one compound from patent US11642344B2, “Cholesteryl ester transfer protein (CETP) inhibitor and pharmaceutical compositions comprising said inhibitor for use in the treatment or prevention of cardiovascular diseases” (NewAmsterdam Pharma B.V., priority 2014, dated 2023).

Compound `CCOC(=O)N1c2ccc(C(F)(F)F)cc2[C@@H](N(Cc2cc(C(F)(F)F)cc(C(F)(F)F)c2)c2ncc(OCCCC(=O)O)cn2)C[C@H]1CC` [Compound A, {4-[(2-{[3,5-bis(trifluoromethyl)benzyl][(2R,4S)-1-(ethoxycarbonyl)-2-ethyl-6-(trifluoromethyl)-1,2,3,4-tetrahydroquinolin-4-yl]amino}pyrimidin-5-yl)oxy]butanoic acid}] came in with an IC50 against CETP [1] of 0.064 µM. The “ex vivo (% inhibition) 3 mg/kg (CMC)” value with CETP [2] was found to be 79.2%.

Broadly, the IC50 is the midpoint of a concentration-inhibition curve. High values mean weaker potency in that assay, low ones greater potency in that assay.
